The target of this experiment is Human Factor D (Homo sapiens (Human), UniProt P00746). Put plainly: Human Factor D Assay. In kind it is biochemical. The gist of the method:
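First, compound at various concentrations is mixed with 80 nM (final) human serum Factor D in 50 mM Tris, 1M NaCl, pH 7.5 for 5 min at room temperature.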

The mark [1] stands for this setting: Human Factor D assay of Example 8, Table 2, read-out: IC50.
[2] abbreviates: Table 3, Human Factor D 80 nM, substrate Z-L-Lys-SBzl, read-out: IC50 (Stars).
[3] abbreviates: Human Factor D, Table 3, read-out: IC50.
The mark [4] stands for this setting: Human Factor D 80 nM, substrate Z-L-Lys-SBzl, read-out: IC50.

The structures appear in SMILES notation. Read-outs that look alike come from different tables or passages of the source.

Human Factor D, sequence (P00746 26-253): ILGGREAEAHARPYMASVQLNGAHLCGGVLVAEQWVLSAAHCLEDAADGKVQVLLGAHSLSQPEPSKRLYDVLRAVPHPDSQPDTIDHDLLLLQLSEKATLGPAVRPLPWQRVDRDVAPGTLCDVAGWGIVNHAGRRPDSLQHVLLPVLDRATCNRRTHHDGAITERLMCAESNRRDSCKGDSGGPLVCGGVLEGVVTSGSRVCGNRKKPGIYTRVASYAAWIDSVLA

For orientation: IC50 means the midpoint of a concentration-inhibition curve. Regarding `NC(=O)c1nn(CC(=O)N2C[C@H](F)C[C@H]2C(=O)Nc2cccc(-c3ccccc3Cl)c2F)cc1-c1ccsc1` [Compound 208, 1-(2-((2S,4R)-2-(2′-chloro-2-fluorobiphenyl-3-ylcarbamoyl)-4-fluoropyrrolidin-1-yl)-2-oxoethyl)-4-(thiophen-3-yl)-1H-pyrazole-3-carboxamide], the IC50 under setting [1] was 1 to 10 µM.

Consider `CC(=O)c1nn(CC(=O)N2C[C@H](F)C[C@H]2C(=O)Nc2cccc(Br)n2)c2cc(C(=O)N(C)C)c(-c3cnc(C)nc3)cc12` [Compound 362, 3-acetyl-1-(2-((2S,4R)-2-((6-bromopyridin-2-yl)carbamoyl)-4-fluoropyrrolidin-1-yl)-2-oxoethyl)-N,N-dimethyl-5-(2-methylpyrimidin-5-yl)-1H-indazole-6-carboxamide], for which the IC50 under setting [2] was less than 1 µM.

Regarding `CC(=O)c1nn(CC(=O)N2C[C@H](F)C[C@H]2C(=O)Nc2cccc(Br)n2)c2ccc(-c3cnn(-c4ncc(F)cn4)c3)cc12` [Compound 699, (2S,4R)-1-(2-(3-Acetyl-5-(1-(5-fluoropyrimidin-2-yl)-1H-pyrazol-4-yl)-1H-indazol-1-yl)acetyl)-N-(6-bromopyridin-2-yl)-4-fluoropyrrolidine-2-carboxamide], the IC50 under setting [3] was less than 1 µM.

As for `CC(=O)c1nn(CC(=O)N2CSC(C)(C)[C@H]2C(=O)NCc2cccc(Cl)c2F)c2ccc(-c3cnc(C)nc3)cc12` [Compound 329, (R)-3-(2-(3-acetyl-5-(2-methylpyrimidin-5-yl)-1H-indazol-1-yl)acetyl)-N-(3-chloro-2-fluorobenzyl)-5,5-dimethylthiazolidine-4-carboxamide], the IC50 under setting [1] is 1 to 10 µM.

Consider `NC(=O)c1nn(CC(=O)N2C[C@H](F)C[C@H]2C(=O)Nc2cccnc2)c2ccc(-c3ccnnc3)cc12` [Compound 47, 1-(2-((2S,4R)-4-fluoro-2-(pyridin-3-ylcarbamoyl)pyrrolidin-1-yl)-2-oxoethyl)-5-(pyridazin-4-yl)-1H-indazole-3-carboxamide], for which the IC50 was greater than 10 µM.

As to `CC(=O)c1nn(CC(=O)N2[C@@H]3C[C@@H]3C[C@H]2C(=O)Nc2cncc(Br)n2)c2ccc(-c3cnc4ccnn4c3)cc12` [Compound 664, (1R,3S,5R)-2-(2-(3-Acetyl-5-(pyrazolo[1,5-a]pyrimidin-6-yl)-1H-indazol-1-yl)acetyl)-N-(6-bromopyrazin-2-yl)-2-azabicyclo[3.1.0]hexane-3-carboxamide], the IC50 under setting [3] is less than 1 µM.

On to `COc1cc(C)cc2c1OCCC2NC(=O)[C@@H]1C[C@@H](F)CN1C(=O)Cn1cc(C(C)=O)c2cc(-c3ccnnc3)ccc21` (stereo partly drawn) [Compound 123, (2S,4R)-1-(2-(3-acetyl-5-(pyridazin-4-yl)-1H-indol-1-yl)acetyl)-4-fluoro-N-(8-methoxy-6-methylchroman-4-yl)pyrrolidine-2-carboxamide], for which the IC50 under setting [4] was greater than 10 µM.

Consider `CC(=O)c1cn(CC(=O)N2C[C@H](F)C[C@H]2C(=O)Nc2cccc(-c3cc(F)c(F)cc3Cl)c2F)c2ccc(-c3cnc(C)nc3)cc12` [Compound 150, (2S,4R)-1-(2-(3-acetyl-5-(2-methylpyrimidin-5-yl)-1H-indol-1-yl)acetyl)-N-(2′-chloro-2,4′,5′-trifluorobiphenyl-3-yl)-4-fluoropyrrolidine-2-carboxamide], for which the IC50 under setting [4] is less than 1 µM.

Take `COCCOCCNC(=O)c1ncc(-c2ccc3c(c2)c(C(C)=O)cn3CC(=O)N2C[C@H](F)C[C@H]2C(=O)Nc2cccc(-c3ccccc3Cl)c2F)cn1` [Compound 212, 5-(3-acetyl-1-(2-((2S,4R)-2-(2′-chloro-2-fluorobiphenyl-3-ylcarbamoyl)-4-fluoropyrrolidin-1-yl)-2-oxoethyl)-1H-indol-5-yl)-N-(2-(2-methoxyethoxy)ethyl)pyrimidine-2-carboxamide]: the IC50 under setting [1] is less than 1 µM.

Turning to `NC(=O)c1nn(CC(=O)N2C[C@H](F)C[C@H]2C(=O)Nc2cccc(Br)n2)c2ccc(-c3cncnc3)cc12` [Compound 5, 1-(2-((2S,4R)-2-(6-bromopyridin-2-ylcarbamoyl)-4-fluoropyrrolidin-1-yl)-2-oxoethyl)-5-(pyrimidin-5-yl)-1H-indazole-3-carboxamide], the IC50 under setting [4] is less than 1 µM.

Turning to `CC(=O)c1nn(CC(=O)N2CC[C@H]2C(=O)Nc2cccc(Br)n2)c2ccc(-c3cnc(C)nc3)cc12` [Compound 542, (S)-1-(2-(3-Acetyl-5-(2-methylpyrimidin-5-yl)-1H-indazol-1-yl)acetyl)-N-(6-bromopyridin-2-yl)azetidine-2-carboxamide], the 50% inhibitory concentration (IC50) under setting [3] was less than 1 µM.

Consider `CC(=O)c1cn(CC(=O)N2C[C@H](F)C[C@H]2C(=O)N[C@@H]2CCC[C@H]2O)c2ccc(-c3ccnnc3)cc12` [Compound 143, (2S,4R)-1-(2-(3-acetyl-5-(pyridazin-4-yl)-1H-indol-1-yl)acetyl)-4-fluoro-N-((1R,2R)-2-hydroxycyclopentyl) pyrrolidine-2-carboxamide], for which, under setting [4], the IC50 was greater than 10 µM.

For the compound `NC(=O)c1nn(CC(=O)N2C[C@H](F)C[C@H]2C(=O)Nc2cncc(Br)n2)c2ccc(-c3ccnnc3)cc12` [Compound 128, 1-(2-((2S,4R)-2-(6-bromopyrazin-2-ylcarbamoyl)-4-fluoropyrrolidin-1-yl)-2-oxoethyl)-5-(pyridazin-4-yl)-1H-indazole-3-carboxamide], under setting [4], the IC50 was less than 1 µM.

Regarding `CC(=O)c1nn(CC(=O)N2CC[C@H]2C(=O)Nc2cccc(C)n2)c2ccc(-c3cccc(C#N)c3)cc12` [Compound 547, (S)-1-(2-(3-Acetyl-5-(3-cyanophenyl)-1H-indazol-1-yl)acetyl)-N-(6-methylpyridin-2-yl)azetidine-2-carboxamide], the 50% inhibitory concentration (IC50) under setting [3] was greater than 10 µM.

On to `CC(=O)c1cn(CC(=O)N2C[C@H](F)C[C@H]2C(=O)Nc2cccc(-c3ccccc3Cl)c2F)c2ccc(N3CCN(c4ncccn4)CC3)cc12` [Compound 31, (2S,4R)-1-(2-(3-acetyl-5-(4-(pyrimidin-2-yl)piperazin-1-yl)-1H-indol-1-yl)acetyl)-N-(2′-chloro-2-fluorobiphenyl-3-yl)-4-fluoropyrrolidine-2-carboxamide], for which, under setting [4], the IC50 was less than 1 µM.

With `CC(=O)c1nn(CC(=O)N2C[C@H](F)C[C@H]2C(=O)Nc2cccc(Br)n2)c2ccc(-c3cnc(C(C)C)nc3)cc12` [Compound 567, (2S,4R)-1-(2-(3-Acetyl-5-(2-isopropylpyrimidin-5-yl)-1H-indazol-1-yl)acetyl)-N-(6-bromopyridin-2-yl)-4-fluoropyrrolidine-2-carboxamide], the IC50 under setting [3] is less than 1 µM.

For `CC(=O)c1nn(CC(=O)N2C[C@H](F)C[C@H]2C(=O)Nc2cccc(Br)n2)c2ccc(-c3cnc4c(C#N)cnn4c3)cc12` [Compound 263, (2S,4R)-1-(2-(3-acetyl-5-(3-cyanopyrazolo[1,5-a]pyrimidin-6-yl)-1H-indazol-1-yl)acetyl)-N-(6-bromopyridin-2-yl)-4-fluoropyrrolidine-2-carboxamide], under setting [1], the IC50 is less than 1 µM.

As to `CC(=O)c1nn(CC(=O)N2C[C@H](F)C[C@H]2C(=O)Nc2cccc(Br)[n+]2[O-])c2ccc(-c3cnc(C)nc3)cc12` [Compound 743, 2-((2S,4R)-1-(2-(3-Acetyl-5-(2-methylpyrimidin-5-yl)-1H-indazol-1-yl)acetyl)-4-fluoropyrrolidine-2-carboxamido)-6-bromopyridine 1-oxide], the IC50 lay within 1 to 10 µM.

Turning to `CC(=O)c1nn(CC(=O)N2C[C@H](F)C[C@H]2C(=O)Nc2cccc(OC(F)F)n2)c2ccc(-c3cnc(C)nc3)cc12` [Compound 582, (2S,4R)-1-(2-(3-Acetyl-5-(2-methylpyrimidin-5-yl)-1H-indazol-1-yl)acetyl)-N-(6-(difluoromethoxy)pyridin-2-yl)-4-fluoropyrrolidine-2-carboxamide], the IC50 under setting [3] was less than 1 µM.

Regarding `CC(=O)c1cn(CCN2C[C@H](F)C[C@H]2C(=O)Nc2cccc(OC(F)(F)F)c2F)c2ccc(-c3cnc4cc(C)nn4c3)cc12` [Compound 701, (2S,4R)-1-(2-(3-Acetyl-5-(2-methylpyrazolo[1,5-a]pyrimidin-6-yl)-1H-indol-1-yl)ethyl)-4-fluoro-N-(2-fluoro-3-(trifluoromethoxy)phenyl)pyrrolidine-2-carboxamide], under setting [3], the IC50 was greater than 10 µM.

Consider `CC(=O)c1nn(CC(=O)N2C[C@H](F)C[C@H]2C(=O)Nc2nc(Br)ccc2C)c2ccc(-c3cnc(C)nc3)cc12` [Compound 405, (2S,4R)-1-(2-(3-Acetyl-5-(2-methylpyrimidin-5-yl)-1H-indazol-1-yl)acetyl)-N-(6-bromo-3-methylpyridin-2-yl)-4-fluoropyrrolidine-2-carboxamide], for which, under setting [2], the IC50 is less than 1 µM.

On to `CC(=O)c1cn(CC(=O)N2C[C@H](F)C[C@H]2C(=O)NCCc2ccccc2)c2ccc(-c3cnc4cc(C)nn4c3)cc12` [Compound 686, (2S,4R)-1-(2-(3-Acetyl-5-(2-methylpyrazolo[1,5-a]pyrimidin-6-yl)-1H-indol-1-yl)acetyl)-4-fluoro-N-phenethylpyrrolidine-2-carboxamide], for which the IC50 under setting [3] was less than 1 µM.

On to `Cn1cc(N2CCCC(NC(=O)[C@@H]3C[C@@H](F)CN3C(=O)Cn3nc(C(N)=O)c4cc(-c5ccnnc5)ccc43)C2)cn1` (stereo partly drawn) [Compound 141, 1-(2-((2S,4R)-4-fluoro-2-(1-(1-methyl-1H-pyrazol-4-yl)piperidin-3-ylcarbamoyl)pyrrolidin-1-yl)-2-oxoethyl)-5-(pyridazin-4-yl)-1H-indazole-3-carboxamide], for which the IC50 under setting [4] is greater than 10 µM.

For the compound `CC(=O)c1nn(CC(=O)N2C[C@H](F)C[C@H]2C(=O)Nc2cccc(Br)n2)c2ccc(-c3cnc4n3CCCC4)cc12` [Compound 309, (2S,4R)-1-(2-(3-acetyl-5-(5,6,7,8-tetrahydroimidazo [1,2-a]pyridin-3-yl)-1H-indazol-1-yl)acetyl)-N-(6-bromopyridin-2-yl)-4-fluoropyrrolidine-2-carboxamide], the IC50 under setting [1] was less than 1 µM.

The compound `CCc1cn(CC(=O)N2NCCC2C(=O)Nc2cccc(-c3ccccc3Cl)c2F)c2ccc(-c3cnc(C)nc3)cc12` (stereo not shown) [Compound 267, N-(2′-chloro-2-fluorobiphenyl-3-yl)-2-(2-(3-ethyl-5-(2-methylpyrimidin-5-yl)-1H-indol-1-yl)acetyl)pyrazolidine-3-carboxamide] registered a 50% inhibitory concentration (IC50) of 1 to 10 µM.

Source of the values: patent US10287301B2 (Achillion Pharmaceuticals, Inc., priority 2015, dated 2019).
